This note sets out measurements from patent US20120149697A1 (priority 2009, published 2012).

For the data set, the system named is ScGT1 cells. The settings on record: for cells remained viable: mouse.

Take fulvic acids [FA]: the “cell viability (cytotoxicity effect)” value was “remain viable” and the cells remained viable is reported as 94%.
For humic acids [HA], in that order: “remain viable” and 96%.
